According to patent publication US12319721B2 (Purdue Research Foundation, priority 2018, dated 2025):
Bridges are numbered along the chain shown (N, C = ends). Roman numbers before positions name the chains, in order. Where no end group is shown, it is not given here. [ ]: non-standard residue; d: D form. The star is where a group is joined. mini PEG = minipeg spacer; Nle = CCCC[C@H](N)C(=O)O; Octanoyl = CCCCCCCC(=O)*; Dap = NC[C@H](N)C(=O)O

Tests used:
[1] = system: fracture callus of fractured femur; assay: Femur fracture model, microCT of the fracture callus (BV/TV, BV, TbTh, TbSp); type: in vivo, Swiss Webster mice
From the text: All in vivo data included herein are from Swiss Webster mice. […] 1×concentration represents 1 nmol/day, 10× represents 10 nmol/day, 100×represents 100 nmol/day and most studies have an n of 5.
The term “BV/TV” means the bone volume divided by total volume of the 100 thickest micro CT slices of the fracture callus.
The term “TbTh” means the trabecular thickness of the 100 thickest micro CT slices of the fracture callus.
The term “[…]” means the overall bone volume of the 100 thickest micro CT slices of the fracture callus.
The term “TbSp” means the spacing between the trabecula in the 100 thickest micro CT slices of the fracture callus.
The targeted conjugates were synthesized using standard Fmoc solid-phase peptide synthesis, as described above. To ensure the conjugates' activity, mouse pre osteo-blast (MCTC3-1) cells were treated with the targeted and untargeted compounds for three days at concentrations from 1 pM to 100 nM. After three days of treatment, the cells were harvested, and the ribonucleic acid (RNA) was purified from the cells. Expression levels of ALP, RUNx2, OSX, osteo-pontin (OPN), collagen 1A (Col-1A), OPG, RANKL, scle-rostin gene (SOST), and OC were quantified via quantitative reverse transcription polymerase chain reaction (RT-qPCR). Once the biological activity of the conjugates was confirmed, they were tested in vivo in a fracture model. Aseptic surgical techniques were used to place a 23-gage needle as in intramedullary nail in the femur of anesthetized, 12-week-old Swiss Webster mice for internal fixation before fracture. Femur fractures were induced using a drop weight fracture device from RISystem. The mice received buprenorphine for three days post fracture. […] Fracture healing was assessed using microCT (Scanco Medical Ag). Morphometric parameters were quantified in the 100 widest slices of the fracture callus. Trabecular thickness (TbTh), trabecular spacing (TbSp), total volume (TV), and volume of calcified callus (BV) were calculated. Fractured femurs were tested for strength in a four-point bend to failure using an Electro Force TestBench (TA Instruments). Lower supports were 10 mm apart on the anterior face of the femur in contact with the proximal and distal diaphysis. Upper supports were 4 mm apart and spanned the entire fracture callus on the diaphysis. Force was applied from the posterior face of the femur with a displacement rate of 0.3 mm/sec. Peak load, yield load, stiffness, displacement post yield, work to fracture, and deformation data were generated. Statistical analysis was performed using a two-way analysis of variance (ANOVA) and a Tukey post-hoc analysis with significance reported at the 95% confidence level. All animal experiments were performed in accordance with protocols approved by Purdue University's Institutional Animal Care and Use Committee (IACUC).

healed fractured femur = assay: Femur fracture model, postmortem four-point bend of the healed femur; type: in vivo, Swiss Webster mice
From the text: All in vivo data included herein are from Swiss Webster mice. All mice received an osteotomy on their right femur and received subcutaneous drug administration daily for either 2, 3 or 4 weeks, as indicated, for each compound. 1×concentration represents 1 nmol/day, 10× represents 10 nmol/day, 100×represents 100 nmol/day and most studies have an n of 5.
The term “Peak Load” means a postmortem 4 point bend of the healed femur. Peak load represents the maximum force the healed femur withstood before it refractured.
The targeted conjugates were synthesized using standard Fmoc solid-phase peptide synthesis, as described above. To ensure the conjugates' activity, mouse pre osteo-blast (MCTC3-1) cells were treated with the targeted and untargeted compounds for three days at concentrations from 1 pM to 100 nM. After three days of treatment, the cells were harvested, and the ribonucleic acid (RNA) was purified from the cells. Expression levels of ALP, RUNx2, OSX, osteo-pontin (OPN), collagen 1A (Col-1A), OPG, RANKL, scle-rostin gene (SOST), and OC were quantified via quantitative reverse transcription polymerase chain reaction (RT-qPCR). Once the biological activity of the conjugates was confirmed, they were tested in vivo in a fracture model. Aseptic surgical techniques were used to place a 23-gage needle as in intramedullary nail in the femur of anesthetized, 12-week-old Swiss Webster mice for internal fixation before fracture. Femur fractures were induced using a drop weight fracture device from RISystem. The mice received buprenorphine for three days post fracture. The mice were dosed subcutaneously each day for two weeks, three weeks, 4 weeks, or 17 days. Fracture healing was assessed using microCT (Scanco Medical Ag). Morphometric parameters were quantified in the 100 widest slices of the fracture callus. Trabecular thickness (TbTh), trabecular spacing (TbSp), total volume (TV), and volume of calcified callus (BV) were calculated. Fractured femurs were tested for strength in a four-point bend to failure using an Electro Force TestBench (TA Instruments). Lower supports were 10 mm apart on the anterior face of the femur in contact with the proximal and distal diaphysis. Upper supports were 4 mm apart and spanned the entire fracture callus on the diaphysis. Force was applied from the posterior face of the femur with a displacement rate of 0.3 mm/sec. Peak load, yield load, stiffness, displacement post yield, work to fracture, and deformation data were generated. Statistical analysis was performed using a two-way analysis of variance (ANOVA) and a Tukey post-hoc analysis with significance reported at the 95% confidence level. All animal experiments were performed in accordance with protocols approved by Purdue University's Institutional Animal Care and Use Committee (IACUC).

[2] = 3 weeks, 0.1, 1 and 10 nmol daily subcutaneous
[3] = 3 weeks, 0.1, 1 and 10 nmol daily subcutaneous, n=5
[4] = 2 weeks, various concentrations 1-100 nmol/day, subcutaneous daily
[5] = 3 weeks, 1, 10 and 100 nmol daily subcutaneous, n=5
[6] = 4 weeks, various concentrations (1, 10 and in part 100 nmol/day), subcutaneous daily
[7] = 1 μmol/kg, subcutaneous, every-other-day, CFW Swiss Webster mice

Molecule: B2A_mp4_(D)E10: two B2A branches (SEQ ID NO: 44) conjugated to e10 (D-glutamic acids), SEQ ID NO: 19, FIG. 35 (AIS[Nle]LYLDENEKVVLK; not fully specified; also: C-terminal Lys carries branching Lys-Ahx3-D-Glu10 moiety)
- BV/TV (bone density) [1, 2]: raises bone density
- BV (bone volume, bone mineralization) [1, 3]: raises bone mineralization
- Max load (bone strength) (healed fractured femur; [3]): raises bone strength
- Work to fracture (bone strength) (healed fractured femur; [3]): raises bone strength

Molecule: BFP-D10: bone forming peptide conjugated with 10 aspartate acids, SEQ ID NO: 1, DDDDDDDDDDGQGFSYPYKA VFSTQ (DDDDDDDDDDGQGFSYPYKAVFSTQ; 10 aspartates)
- BV/TV [1, 4]: dose dependent manner
- TbSp [1, 4]: dose dependent manner
- Peak load of fractured femurs (ranking, compared to PBS) (healed fractured femur; after 2 weeks, 100 nmol/day (100×)): obtained the maximum peak load

Molecule: CBM D10: collagen binding motif of osteopontin conjugated with 10 aspartate acids, SEQ ID NO: 9, FIG. 33
- BV/TV (bone density) [1, 2]: dose dependent manner

Molecule: F2A_mp4_(D)E10: two copies of FGF2 receptor targeting sequence YRSRKYSSWYVALKR branching from a lysine, 4 mini pegs, 10 D glutamic acids
- BV/TV (bone density) [1, 2]: raises bone density
- BV (bone volume, bone mineralization) [1, 3]: raises bone mineralization
- Max load (bone strength) (healed fractured femur; [3]): raises bone strength
- Work to fracture (bone strength) (healed fractured femur; [3]): raises bone strength

Molecule: F119_mp4 (D)E10: heparin binding fragment 119-135 of FGF2 with mp4 linker and 10 glutamic acids, SEQ ID NO: 20, FIG. 84 (KRTGQYKLGSKTGPGQK; mp4 linker, 10 D-glutamic acids; SITE 17 C-term Lysine modified with 4 mini PEG linker-d(Glutamic acid)10 moiety)
- BV (bone volume, bone mineralization) [1, 5]: raises bone mineralization
- BV/TV (bone density) [1, 5]: raises bone density
- Max load (bone strength) (healed fractured femur; [5]): raises bone strength
- Work to fracture (bone strength) (healed fractured femur; [5]): raises bone strength

Molecule: Ghrelin-D 10: Ghrelin D10 with Ser-3 replaced with diaminopropionic acid modified with an octanoyl group sidechain, SEQ ID NO: 5 (GS[Dap](Octanoyl)FLSPEHQKAQQRKESKKPPAKLQPRDDDDDDDDDD)
- BV/TV [1, 6]: dose dependent manner

Molecule: JNK3_Mp4_(D)E10: 25-residue arrestin-3 peptide (JNK3) with mp4 linker and 10 glutamic acids, SEQ ID NO: 21, FIG. 49 (MGEKPGTRVFKKSSPNCKLTVYLGK; mp4 linker, 10 D-glutamic acids; SITE 25 C-term Lysine modified with 4 mini PEG linker-d(Glutamic acid)10 moiety)
- BV/TV (bone density) [1, 2]: raises bone density
- BV (bone volume, bone mineralization) [1, 3]: raises bone mineralization
- Max load (bone strength) (healed fractured femur; [3]): raises bone strength
- Work to fracture (bone strength) (healed fractured femur; [3]): raises bone strength

Molecule: MGF D10: Mechano-growth factor conjugated with 10 aspartate acids, SEQ ID NO: 11, DDDDDDDDDDYQPPSTNKNTKSQRRKGSTFEEHK (10 aspartates)
- BV/TV [1, 6]: dose dependent manner

Molecule: ODP D10: Osteopontin-derived peptide conjugated with 10 aspartate acids via 4 mini PEG, SEQ ID NO: 13 (DDDDDDDDDD[mini PEG][mini PEG][mini PEG][mini PEG]DVDVPDGRGDSLAYG)
- BV/TV ([1]; 4 weeks, 1 nmol/day (1×)): healing was reflected as BV/TV

Molecule: OGP-D10: osteogenic growth peptide conjugated with 10 aspartate acids, SEQ ID NO: 2, DDDDDDDDDDALKRQGRTL YGFGG (DDDDDDDDDDALKRQGRTLYGFGG; 10 aspartates)
- BV/TV [1, 4]: dose dependent manner
- TbSp [1, 4]: dose dependent manner
- TbTh [1, 4]: dose dependent manner

Molecule: Osteostatin_mp4_(D)E10: Osteostatin (PTHrP[107-139]) with 10 glutamic acids, SEQ ID NO: 23, FIG. 59
- BV/TV (bone density) [1, 2]: raises bone density
- Tbth (trabecular thickness, bone quality) [1, 3]: raises bone quality
- Max load (bone strength) (healed fractured femur; [3]): raises bone strength
- Stiffness (healed fractured femur; [3]): raises bone stiffness
- Work to fracture (bone strength) (healed fractured femur; [3]): raises bone strength

Molecule: P4 D10: P4 (BMP-2 knuckle epitope fragment) conjugated with 10 aspartate acids, SEQ ID NO: 10 (HKIPKASSVPTELSAISTLYLDDDDDDDDDD; 10 aspartates)
- BV/TV [1, 6]: dose dependent manner

Molecule: Preptin D10: Preptin conjugated with 10 aspartate acids, SEQ ID NO: 3, FIG. 29 (DVSTSQAVLPDDFPRYDDDDDDDDDD; 10 aspartates)
- BV/TV [1, 4]: dose dependent manner
- TbTh [1, 4]: dose dependent manner
- bone volume (BV) [1, 4]: dose dependent manner

Molecule: pBMP9 D 10: peptide from BMP-9 knuckle epitope conjugated with D10, SEQ ID NO: 6/14, FIG. 27 (chain 1 CGGKVGKACCVPTKLSPISVLYK; chain 2 CGGKVGKACCVPTKLSPISVLVK; not fully specified (C-terminus); cysteine pairing not given here; also: the two chains differ at position 22 (Y vs V))
- bone volume (BV) ([1]; 4 weeks, 1, 10 and 100 nmol/day, subcutaneous daily): dose dependent manner
- BV/TV [1, 6]: dose dependent manner

Molecule: targeted E738 conjugate: Src inhibitor E738 conjugated with D10 (10 aspartic acids, SEQ ID NO: 30), FIG. 4 (DDDDDDDDDD; not fully specified (C-terminus); also: conjugated to Src inhibitor E738)
- Trabecular Thickness at the fracture callus [1, 7]: significantly improved
- bone density (BV/TV) at the fracture callus [1, 7]: significantly improved

B1: CNP D10: C-type Natriuretic peptide conjugated with 10 aspartate acids, SEQ ID NO: 7/16, FIG. 30 (peptide)
chain 1: DDDDDDDDDDGLSKGCFGLKLDRIGSMSGLGC
chain 2: DDDDDDDDDDGLSKGCFGLKLDRIGSMSGLGC
modifications: disulfide I:16-I:32, II:16-II:32; not fully specified
- BV/TV [1, 6]: dose dependent manner

B2: VIP D10: Vasoactive intestinal peptide conjugated with D10, SEQ ID NO: 8/17, FIG. 31 (peptide)
chain 1: HSDAVFTDNYTRLRKQMAVKKYLNSILNDDDDDDDDDD
chain 2: HSDAVFTDNYTRLRKQMAVKKYLNSILNDDDDDDDDDD
modifications: 10 aspartates
- BV/TV ([1]; 4 weeks, 1 nmol/day (1×)): healing was reflected as BV/TV
- TbTh ([1]; 4 weeks, 1 nmol/day (1×)): healing was reflected
